According to ChEMBL document CHEMBL1201862, “PubChem BioAssay data set” (2004):
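Where inhibition never reached the appropriate level, the endpoint shown equals the highest concentration tested. Otherwise, values were interpolated linearly from a five-concentration, 48-hour dose response in 96-well plates. GI50 is the concentration that inhibits growth by half.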 Active and inactive are the calls of the source. No stated cut-off is given here; in the data, active = GI50 up to about 1.1 µM and inactive = higher.

Key:
Experiment in all cases: DTP human tumour cell line panel, 48 h
Hs-578T = test system: Hs-578T
DMS-273 = test system: DMS-273
DLD-1 = test system: DLD-1
HOP-18 = test system: HOP-18
KM-20L2 = test system: KM-20L2
SNB-78 = test system: SNB-78
DMS-114 = test system: DMS-114
XF498 = test system: XF498
RXF 631 = test system: RXF 631

COc1ccc(CCN2CCN(CCc3ccc(OC)cc3)CC2)cc1
GI50 (Hs-578T): > 100 µM (inactive)

COc1cccc(C2c3cc4c(cc3OC(N3CCCCC3)C2C)OCO4)c1OC (stereo not given)
GI50 (Hs-578T): 4.31 µM (inactive)

CC1(c2cccc(C3CC4(CCC3=O)OCCCCO4)c2)OCCO1 (stereo not given)
GI50 (DMS-273): > 100 µM (inactive)
GI50 (DLD-1): > 100 µM (inactive)
GI50 (HOP-18): > 100 µM (inactive)
GI50 (KM-20L2): > 100 µM (inactive)
GI50 (SNB-78): > 100 µM (inactive)
GI50 (DMS-114): 7.96 µM (inactive)

CC1(C)CCCC2(C)C3C(O)CC2(C)C(O)C31 (stereo not given)
GI50 (XF498): > 100 µM (inactive)
GI50 (DLD-1): > 100 µM (inactive)
GI50 (HOP-18): > 100 µM (inactive)
GI50 (KM-20L2): > 100 µM (inactive)
GI50 (SNB-78): > 100 µM (inactive)
GI50 (DMS-114): > 100 µM (inactive)

COc1ccc(OC)c2cc(C3(C)SCCCS3)ccc12
GI50 (DMS-273): 79.6 µM (inactive)
GI50 (XF498): 61.7 µM (inactive)
GI50 (DLD-1): > 100 µM (inactive)
GI50 (HOP-18): > 100 µM (inactive)
GI50 (KM-20L2): 81.7 µM (inactive)
GI50 (SNB-78): 45.9 µM (inactive)
GI50 (DMS-114): 92.5 µM (inactive)

O=C1N[C@H](C(=O)O)[C@@H](c2ccc(OCc3ccccc3)cc2)O1
GI50 (Hs-578T): 27.5 µM (inactive)

Cc1ccc(S(=O)(=O)N2CCSCCSCCSCCSCC2)cc1
GI50 (Hs-578T): > 23.3 µM (inactive)

O=C(CC1C(=O)Nc2ccccc2S1(=O)=O)Nc1ccc(Cl)cc1 (stereo not given)
GI50 (RXF 631): 27.6 µM (inactive)
GI50 (DMS-273): 13.1 µM (inactive)
GI50 (XF498): 11.7 µM (inactive)
GI50 (DLD-1): 33.5 µM (inactive)
GI50 (KM-20L2): > 100 µM (inactive)
GI50 (SNB-78): 21.7 µM (inactive)
GI50 (DMS-114): 13.4 µM (inactive)

O=c1oc2c3ccc4ccccc4c3n(CCCN3CCCCC3)c2c2ccccc12
GI50 (RXF 631): 46.7 µM (inactive)
GI50 (XF498): 64.6 µM (inactive)
GI50 (DLD-1): 25.2 µM (inactive)
GI50 (HOP-18): > 100 µM (inactive)
GI50 (KM-20L2): 19.5 µM (inactive)
GI50 (DMS-114): > 100 µM (inactive)

CC1OC(OC2C(O[C@H]3CC[C@@H]4C(=CC[C@@H]5[C@@]4(C)C(=O)C[C@]4(C)[C@@H]([C@H](C)CC[C@@H](O)C(C)(C)O)CC[C@@]54C)C3(C)C)OC(CO)C(O)C2O)C(O)C(O)C1O (stereo not given in full)
GI50 (Hs-578T): > 100 µM (inactive)

O=C1COc2ccc([N+](=O)[O-])cc2C(=O)C1
GI50 (Hs-578T): > 10 µM (inactive)

Nc1nc(Cl)cc(NCC(O)CO)n1 (stereo not given)
GI50 (DMS-273): > 100 µM (inactive)
GI50 (XF498): > 100 µM (inactive)
GI50 (DLD-1): > 100 µM (inactive)
GI50 (HOP-18): > 100 µM (inactive)
GI50 (KM-20L2): > 100 µM (inactive)
GI50 (SNB-78): > 100 µM (inactive)
GI50 (DMS-114): > 100 µM (inactive)

COc1ccc2c(c1)[C@@H]1c3cc(OC)c(OC)cc3CCN1CCC2
GI50 (Hs-578T): > 100 µM (inactive)

N#CC(=C1CCN(CCCC(=O)c2ccc(F)cc2)CC1)c1ccccc1
GI50 (Hs-578T): > 100 µM (inactive)

Cc1ccc2c(c1)S(=O)(=O)c1ccc3ccccc3c1N2
GI50 (Hs-578T): > 100 µM (inactive)

N[C@H](C(=O)O)[C@H]1ON=C(Cl)[C@@H]1O
GI50 (DMS-273): 1.16 µM (inactive)
GI50 (XF498): 59 µM (inactive)
GI50 (DLD-1): 1.09 µM (active)
GI50 (HOP-18): > 360 µM (inactive)
GI50 (KM-20L2): 0.343 µM (active)
GI50 (SNB-78): 28.1 µM (inactive)
GI50 (DMS-114): 6.61 µM (inactive)
GI50 (Hs-578T): 8.65 µM (inactive)

O=C(Nc1cc(Cl)c(Cl)cc1Cl)C(=O)C(C(=O)c1ccc(Cl)c(Cl)c1)C1OC(=O)c2ccccc21 (stereo not given)
GI50 (DMS-273): 16.9 µM (inactive)
GI50 (DLD-1): 8.47 µM (inactive)
GI50 (KM-20L2): 17.7 µM (inactive)
GI50 (SNB-78): 31.8 µM (inactive)
GI50 (DMS-114): 13.7 µM (inactive)

COc1cc2c(cc1OC)C(CCN)=NCC2
GI50 (Hs-578T): 27.7 µM (inactive)

CCOc1ccccc1/N=N/C1C(=O)N(C(=O)CC(=O)Nc2ccccc2OC)N=C1C (stereo not given)
GI50 (Hs-578T): 1.78 µM (inactive)

N#C[BH2-][n+]1ccc(C(=O)NNCc2ccc(F)cc2)cc1
GI50 (Hs-578T): > 100 µM (inactive)

CC(C)(C)C1=Nc2c(Br)cc(C(C)(C)C)cc2C(C(F)(F)F)(C(F)(F)F)O1
GI50 (DMS-273): 46 µM (inactive)
GI50 (XF498): 19 µM (inactive)
GI50 (DLD-1): > 100 µM (inactive)
GI50 (KM-20L2): > 100 µM (inactive)
GI50 (SNB-78): > 100 µM (inactive)
GI50 (DMS-114): 31.6 µM (inactive)

COC(=O)C1CCCC2(C1)OCCO2 (stereo not given)
GI50 (RXF 631): > 100 µM (inactive)
GI50 (DMS-273): > 100 µM (inactive)
GI50 (DLD-1): > 100 µM (inactive)
GI50 (HOP-18): > 100 µM (inactive)
GI50 (KM-20L2): > 100 µM (inactive)
GI50 (SNB-78): > 100 µM (inactive)
GI50 (DMS-114): > 100 µM (inactive)

COc1ccc(OC)c(C2Cc3cnc4nc(N)nc(N)c4c3C2)c1 (stereo not given)
GI50 (Hs-578T): 30.6 µM (inactive)

Nc1ccc([As](=O)(O)O)cc1 [ARSANILIC ACID]
GI50 (Hs-578T): > 100 µM (inactive)

O=C1c2ccccc2C2(O)N(c3ccccc3)C(=S)N(c3ccccc3)C12O (stereo not given)
GI50 (RXF 631): > 100 µM (inactive)
GI50 (DMS-273): > 100 µM (inactive)
GI50 (DLD-1): > 100 µM (inactive)
GI50 (HOP-18): > 100 µM (inactive)
GI50 (KM-20L2): > 100 µM (inactive)
GI50 (SNB-78): > 100 µM (inactive)
GI50 (DMS-114): > 100 µM (inactive)

CCOC(=O)Nc1sc2c(c1C#N)CCCC2
GI50 (Hs-578T): 78.7 µM (inactive)

COc1ccc(NC(=O)CC/C(CC(=O)C(C)(C)C)=N\NC(=O)C(N)=O)cc1
GI50 (DLD-1): > 100 µM (inactive)
GI50 (KM-20L2): > 100 µM (inactive)
GI50 (DMS-114): > 100 µM (inactive)
